# Assay results published in patent US20250313575A1, “MACROCYCLES AS LRRK2 INHIBITORS, PHARMACEUTICAL COMPOSITIONS, AND USES THEREOF” (Merck Sharp & Dohme LLC, priority 2022, published 2025).
# Structures can show the parent of a compound that is named as a salt.
# Molecular target: GST-tagged truncated human mutant G2019S LRRK2 (Homo sapiens (Human), UniProt Q5S007, G2019S)
# Test: LRRK2 G2019S Km ATP LanthaScreen assay
# Type: biochemical
# Details: G2019S LRRK2, 134 μM ATP (Km ATP), LRRKtide substrate
# Summary of the method: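 Ten-point compound series (highest 9.99 μM in DMSO) preincubated 15 min with 1.25 nM GST-tagged truncated human LRRK2 G2019S, then 90 min reaction at ambient temperature with 134 μM ATP (Km) and fluorescein-labelled LRRKtide, pH 8.5. Phosphorylation read as 520/495 nm emission ratio via Tb-labelled antibody; IC50 from 4P logistic regression.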
# Sequence of GST-tagged truncated human mutant G2019S LRRK2 (Q5S007 970-2527 G2019S): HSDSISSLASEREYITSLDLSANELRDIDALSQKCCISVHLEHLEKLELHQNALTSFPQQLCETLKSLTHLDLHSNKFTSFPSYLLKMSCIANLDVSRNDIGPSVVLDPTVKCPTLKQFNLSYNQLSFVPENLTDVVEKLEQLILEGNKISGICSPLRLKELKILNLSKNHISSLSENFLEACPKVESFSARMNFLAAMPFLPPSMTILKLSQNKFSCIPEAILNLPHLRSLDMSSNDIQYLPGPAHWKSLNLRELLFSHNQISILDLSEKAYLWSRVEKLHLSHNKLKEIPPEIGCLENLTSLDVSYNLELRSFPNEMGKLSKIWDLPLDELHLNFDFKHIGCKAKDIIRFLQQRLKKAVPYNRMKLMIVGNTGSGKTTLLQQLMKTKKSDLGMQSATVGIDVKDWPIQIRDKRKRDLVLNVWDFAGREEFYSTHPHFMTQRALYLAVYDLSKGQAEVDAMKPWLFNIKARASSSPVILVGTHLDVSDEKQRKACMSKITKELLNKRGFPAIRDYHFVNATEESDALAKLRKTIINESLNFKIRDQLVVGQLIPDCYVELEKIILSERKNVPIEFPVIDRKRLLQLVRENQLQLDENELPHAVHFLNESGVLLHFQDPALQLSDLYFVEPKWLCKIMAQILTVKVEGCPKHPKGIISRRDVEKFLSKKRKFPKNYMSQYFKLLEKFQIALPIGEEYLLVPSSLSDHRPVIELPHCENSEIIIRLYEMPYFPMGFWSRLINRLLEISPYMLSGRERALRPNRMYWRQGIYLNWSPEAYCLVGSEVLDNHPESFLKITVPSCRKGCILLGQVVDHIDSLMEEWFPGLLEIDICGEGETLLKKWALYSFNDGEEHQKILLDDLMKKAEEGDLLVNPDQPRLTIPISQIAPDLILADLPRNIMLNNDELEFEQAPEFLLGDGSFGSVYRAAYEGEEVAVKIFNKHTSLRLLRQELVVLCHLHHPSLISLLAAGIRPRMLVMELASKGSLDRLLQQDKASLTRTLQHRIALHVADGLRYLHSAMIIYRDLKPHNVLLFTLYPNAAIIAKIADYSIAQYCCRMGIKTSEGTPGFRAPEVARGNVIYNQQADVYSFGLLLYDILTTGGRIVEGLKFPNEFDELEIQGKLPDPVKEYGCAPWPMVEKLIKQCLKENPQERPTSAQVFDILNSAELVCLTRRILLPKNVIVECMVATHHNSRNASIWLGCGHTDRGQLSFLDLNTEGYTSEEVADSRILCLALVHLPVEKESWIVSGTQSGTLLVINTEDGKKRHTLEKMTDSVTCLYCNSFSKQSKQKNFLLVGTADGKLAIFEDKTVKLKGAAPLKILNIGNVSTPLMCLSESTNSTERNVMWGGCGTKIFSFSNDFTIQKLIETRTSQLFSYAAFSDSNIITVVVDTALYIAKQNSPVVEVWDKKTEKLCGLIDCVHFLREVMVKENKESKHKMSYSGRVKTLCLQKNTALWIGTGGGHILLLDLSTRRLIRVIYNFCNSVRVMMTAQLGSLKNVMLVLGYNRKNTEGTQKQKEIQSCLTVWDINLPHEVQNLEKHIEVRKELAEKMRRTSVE
row,Molecule,LRRK2 pIC50
1,"CC(C)c1nn(C2CS(=O)(=O)C2)c2c1Nc1ncc(C(F)(F)F)c(n1)N[C@@H]1CC[C@H]1CO2 [Ex-10.1, 3-((10aR,12aR)-3-isopropyl-8-(trifluoromethyl)-10,10a,11,12,12a,13-hexahydro-5,9-(azeno)cyclobuta[k]pyrazolo[3,4-b][1]oxa[4,6,10]triazacyclotridecin-1 (4H)-yl) thietane 1,1-dioxide]",>10.09
2,"Cc1nn(C2CCC2)c2c1OC[C@@H]1COC[C@H]1Nc1cc(ncc1C(F)(F)F)N2 [Ex-13.1, (10aR,13aR)-3-Cyclobutyl-1-methyl-8-(trifluoromethyl)-3,4,10a,11,13a,14-hexahydro-10H,13H-5,9-(metheno)furo[3,4-k]pyrazolo[4,3-b][1]oxa[4,6,10]triazacyclotridecine, TFA]",>10.09
3,"Cc1nn(C2CCC2)c2c1OC[C@H]1COC[C@@H]1Nc1cc(ncc1C(F)(F)F)N2 [Ex-13.2, (10aR,13aR)-3-cyclobutyl-1-methyl-8-(trifluoromethyl)-3,4,10a,11,13a,14-hexahydro-10H,13H-5,9-(metheno)furo[3,4-k]pyrazolo[4,3-b][1]oxa[4,6,10]triazacyclotridecine]",7.01
4,"Cc1nn(C2CCC2)c2c1OC[C@@H]1CC[C@H]1Nc1cc(ncc1Cl)N2 [Ex-13.3, (10aR,12aR)-8-chloro-3-cyclobutyl-1-methyl-3,4,10,10a,11,12,12a,13-octahydro-5,9-(metheno)cyclobuta[k]pyrazolo[4,3-b][1]oxa[4,6,10]triazacyclotridecine]",>10.09
5,"Cc1nn(C(C)C)c2c1OC[C@@H]1CC[C@H]1Nc1cc(ncc1Cl)N2 [Ex-13.4, (10aR,12aR)-8-chloro-3-isopropyl-1-methyl-3,4,10,10a,11,12,12a,13-octahydro-5,9-(metheno)cyclobuta[k]pyrazolo[4,3-b][1]oxa[4,6,10]triazacyclotridecine]",9.61
6,"Cc1nn(C(C)C)c2c1OC[C@@H]1COC[C@H]1Nc1cc(ncc1C(F)(F)F)N2 [Ex-13.5, (10aS,13aS)-3-isopropyl-1-methyl-8-(trifluoromethyl)-3,4,10a,11,13a,14-hexahydro-10H,13H-5,9-(metheno)furo[3,4-k]pyrazolo[4,3-b][1]oxa[4,6,10]triazacyclotridecine]",>10.09
7,"Cc1nn(C2CCC2)c2c1OC[C@@H]1CC[C@H]1Nc1cc(ncc1F)N2 [Ex-13.6, (10aR,12aR)-3-cyclobutyl-8-fluoro-1-methyl-3,4,10,10a,11,12,12a,13-octahydro-5,9-(metheno)cyclobuta[k]pyrazolo[4,3-b][1]oxa[4,6,10]triazacyclotridecine]",<5.00
8,"Cc1nn(C2CCC2)c2c1OC[C@@H]1CC[C@H]1Nc1cc(ncc1F)N2 [Ex-13.7, (10aR,12aR)-3-cyclobutyl-8-fluoro-1-methyl-3,4,10,10a,11,12,12a,13-octahydro-5,9-(metheno)cyclobuta[k]pyrazolo[4,3-b][1]oxa[4,6,10]triazacyclotridecine]",5.02
9,"Cc1nn(C2CCC2)c2c1OC[C@@H]1COC[C@H]1Nc1cc(ncc1F)N2 [Ex-13.8, (10aR,13aR)-3-cyclobutyl-8-fluoro-1-methyl-3,4,10a,11,13a,14-hexahydro-10H,13H-5,9-(metheno)furo[3,4-k]pyrazolo[4,3-b][1]oxa[4,6,10]triazacyclotridecine]",<5.00
10,"Cn1nc(C(F)(F)F)c2c1Nc1cc(c(Cl)cn1)N[C@@H]1COC[C@H]1CO2 [Ex-13.9, (10aS,13aS)-8-chloro-3-methyl-1-(trifluoromethyl)-3,4,10a,11,13a,14-hexahydro-10H,13H-5,9-(metheno)furo[3,4-k]pyrazolo[4,3-b][1]oxa[4,6,10]triazacyclotridecine]",8.49
11,"Cc1nn(C2CC2)c2c1OC[C@@H]1CC[C@H]1Oc1nc(ncc1C(F)(F)F)N2 [Ex-14.1, (10aR,13aS)- or (10aS,13aR)-3-Cyclopropyl-1-methyl-8-(trifluoromethyl)-3,4,10a,11,12a,13-hexahydro-12H-5,9-(azeno)cyclobuta[k]pyrazolo[4,3-b][1,10]dioxa[4,6]diazacyclotridecine]",8.78
12,"Cc1nn(C2CC2)c2c1OC[C@H]1CC[C@@H]1Oc1nc(ncc1C(F)(F)F)N2 [Ex-14.2, (10aR,13aS)- or (10aS,13aR)-3-Cyclopropyl-1-methyl-8-(trifluoromethyl)-3,4,10a,11,12a,13-hexahydro-12H-5,9-(azeno)cyclobuta[k]pyrazolo[4,3-b][1,10]dioxa[4,6]diazacyclotridecine]",5.16
13,COc1cccc2c1Nc1ncc(C(F)(F)F)c(n1)N[C@H]1COC[C@@H]1CO2 [Ex-15.1],>10.09
14,"COc1cccc2c1Nc1ncc(Cl)c(n1)N[C@@H]1COC[C@H]1CO2 [Ex-15.2, (3aS,16aS)-6-chloro-11-methoxy-3a,4,16,16a-tetrahydro-1H,3H,10H-5,9-(azeno)benzo[b]furo[3,4-k][1]oxa[4,6,10]triazacyclotridecine]",9.65
15,"Cc1cnc2c(c1)Nc1ncc(C(F)(F)F)c(n1)N[C@@H]1COC[C@H]1CO2 [Ex-15.3, (11aS,14aS)-3-methyl-9-(trifluoromethyl)-11a,12,14a,15-tetrahydro-5H,11H,14H6,10-(azeno)furo[3,4-k]pyrido[2,3-b][1]oxa[4,6,10]triazacyclotridecine]",9.15
16,"FC(F)(F)c1cnc2nc1N[C@@H]1COC[C@H]1COc1cccc(Br)c1N2 [Ex-15.4, (3aS,16aS)-11-bromo-6-(trifluoromethyl)-3a,4,16,16a-tetrahydro-1H,3H,10H-5,9-(azeno)benzo[b]furo[3,4-k][1]oxa[4,6,10]triazacyclotridecine]",9.12
17,"FC(F)(F)c1cnc2nc1N[C@@H]1COC[C@H]1COc1ccnc(Cl)c1N2 [Ex-15.5, (3aS,16aS)-11-chloro-6-(trifluoromethyl)-3a,4,16,16a-tetrahydro-1H,3H,10H-5,9-(azeno)furo[3,4-k]pyrido[4,3-b][1]oxa[4,6,10]triazacyclotridecine]",9.90
18,"FC(F)(F)c1cnc2nc1N[C@@H]1COC[C@H]1COc1ncccc1N2 [Ex-15.6, (11aS,14aS)-9-(trifluoromethyl)-11a,12,14a,15-tetrahydro-5H,11H,14H6,10-(azeno)furo[3,4-k]pyrido[2,3-b][1]oxa[4,6,10]triazacyclotridecine]",9.08
19,"Cc1ccc2c(n1)OC[C@@H]1COC[C@H]1Nc1nc(ncc1C(F)(F)F)N2 [Ex-15.7, (11aS,14aS)-2-methyl-9-(trifluoromethyl)-11a,12,14a,15-tetrahydro-5H,11H,14H6,10-(azeno)furo[3,4-k]pyrido[2,3-b][1]oxa[4,6,10]triazacyclotridecine]",10.01
20,"FC(F)(F)c1cnc2nc1N[C@@H]1COC[C@H]1COc1cc(Cl)ncc1N2 [Ex-15.8, (3aS,16aS)-13-chloro-6-(trifluoromethyl)-3a,4,16,16a-tetrahydro-1H,3H,10H-5,9-(azeno)furo[3,4-k]pyrido[4,3-b][1]oxa[4,6,10]triazacyclotridecine]",9.04
21,"C[C@@H]1CCOc2cn(C)nc2Nc2ncc(Cl)c(n2)N1 [Ex-18.1, (R)-10-chloro-2,7-dimethyl-2,5,6,7,8,14-hexahydro-9,13-(azeno)pyrazolo[4,3-b][1]oxa[4,6,10]triazacyclotridecine]",7.94
22,Cc1nn(C)c2c1OC[C@@H]1CN(C[C@H]1C)c1nc(ncc1C(F)(F)F)N2 [Ex-19.1],>10.09
23,"(10aR,12aR)-8-chloro-3-methyl-1- (trifluoromethyl)-3,4,10,10a,11,12,12a,13- octahydro-5,9- (azeno)cyclobuta[k]pyrazolo[4,3- b][1]oxa[4,6,10]triazacyclotridecine [Ex-2.76]",9.47
24,"(R)- or (S)-1-cyclopropyl-3,7-dimethyl-10- (trifluoromethyl)-1,5,6,7,8,14-hexahydro- 9,13-(azeno)pyrazolo[4,3- b][1]oxa[4,6,10]triazacyclotridecine [Ex-2.20]",6.71
25,"(R)- or (S)-1-cyclopropyl-3,7-dimethyl-10- (trifluoromethyl)-1,5,6,7,8,14-hexahydro- 9,13-(azeno)pyrazolo[4,3- b][1]oxa[4,6,10]triazacyclotridecine [Ex-2.21]",9.00
